Patent US20160039796A1, “BARETTIN AND DERIVATIVES THEREOF FOR MEDICAL USE, IN PARTICULAR FOR THE TREATMENT OF DISEASES RELATED TO OXIDATIVE STRESS OR INFLAMMATION, AND FOR PRESERVING OR WASHING ORGANS” (ABC Bioscience AS, priority 2013, published 2016)

Legend:
[1] = FRAP (ferric reducing antioxidant power) assay; type: biochemical; conditions: for FRAP value: 30 μg/ml; for FRAP dose-response: FIG. 2
Procedure: The inventors used the biochemical assay FRAP (ferric reducing antioxidant power) to obtain an indication of the antioxidant potential of MBC-005 (isolated brominated) and MBC-007 (synthetic de-brominated).
Reagents were prepared according to benzie, I.F.F. et al. Analytical Biochemistry 1996, 239, 70-76 and carried out in a DTX 880 Multimode Detector (Beckman Coulter, Calif., USA) at 595 nm. Trolox (Sigma, 238813) was used to prepare the standard curve (0-250 μM; working concentration). The FRAP reagent (TPTZ (2,4,6-Tris(2-pyridyl)-s-triazine): Fluka, 93285; Fe: Merck 103943) was prepared daily. The assay was carried out in clear 96-well plates, with 20 μl sample and 150 μl FRAP-reagent added to each well in duplicates. Water was used as a blank. Samples were incubated at 37° C. for 30 min before reading the plate. The blank was subtracted from each sample and a standard curve was created from the average absorbance of the duplicated Trolox samples. The equation generated from the standard curve was used to calculate the trolox equivalents (TE) from each sample. Results were expressed as μM TE.

[2] = ORAC (oxygen radical absorbance capacity) assay; type: biochemical; conditions: for ORAC dose-response: FIG. 3
Procedure: The inventors used the biochemical assay ORAC (oxygen radical absorbance capacity) to obtain an indication of the antioxidant potential of MBC-005 (isolated brominated) and MBC-007 (synthetic de-brominated).
The method has been modified from Huang, D. et al., Journal of Agricultural and Food Chemistry 2002, 50, 4437-4444. The assay was carried out in black 96-well plates (Nunc 7350004) and using a Victor3 Plate Reader (Perkin Elmer, Mass., USA) at 37° C. (exitation 486 nm, emission 520 nm). All reagents were dissolved in 75 mM phosphate buffer (PB) (pH 7,4). Different concentrations of the MBC-005 and MBC-007 preparations were added in duplicates followed by addition of 125 μl fluorescein (Fluka, 46960) (52 nM final concentration). After a 15 minute incubation at 37° C., 60 μl AAPH (2,2′-Azobis(2-methylpropionamidine) dihydrochloride; Sigma-Aldrich, 440914) was quickly added to each sample (44 mM final concentration). Fluorescence was recorded 25 times at 37° C. with a 70 sec delay between repeats. Trolox (0-25 μM working concentration) was included in each run to make a standard curve. PB was used as a blank and for the 0 μM Trolox sample. Area under the curve (AUC) was calculated by subtracting the AUCBlank values. A standard curve was created using the Trolox values and Trolox equivalents of the samples were calculated from the resulting equation. Results were expressed as μM TE.

HepG2 cells [3] = assay: cellular lipid peroxidation antioxidant activity (CLPAA) assay; type: cell-based; conditions: for activity in CLPAA assay (lipid peroxidation in HepG2 cells): FIG. 4, normalized to positive control CumOOH
Procedure: (§1) HepG2 cells were grown in MEM Earle's medium (F0325) supplemented with gentamycin (10 μg/ml, A2712), non-essential amino acids (1%, K0293), sodium pyruvate (1 mM, L0473), L-alanyl-L-glutamine (2 mM, K0302) and fetal bovine serum (10%, S0115) and incubated at 37° C. with 5% CO2. Media and supplements were from Biochrom (Berlin, Germany).
The inventors used the cellular lipid peroxidation antioxidant activity (CLPAA) assay. This assays measures the intracellular ROS (reactive oxygen species) and membrane antioxidant activity, respectively. The brominated barettin molecule gave a 55% reduction in oxidation compared to the control in the CLPAA assay.
Approximately 80.000 HepG2 cells per well were seeded in black 96 well plates with clear bottom (#3603, Corning, N.Y., USA) and incubated overnight. The cells were labelled with C11-BODIPY (#D3861, Invitrogen, Eugene, Oreg.) for 30 min and incubated for 1 h with various concentrations of the test compounds. Cumene hydroperoxide (cumOOH, #247502, Sigma-Aldrich, St. Louis, Mo.) was added to initiate lipid peroxidation and the plate was immediately placed in a Victor3 Plate Reader (Perkin Elmer, Mass., USA). Both red (590/7 nm (exitation), 632/45 nm (emission)) and green (485/14 nm, 520/10 nm) fluorescence was recorded during ˜1 h. Cells were washed with PBS between additions of new reagents. Total reaction volume was 100 μl. All incubations were carried out at 37° C. with 5% CO2. Percent inhibition was calculated relative to the positive control (cumOOH without test compound).

[4] = test system: IL-6 release from THP-1 cells; assay: LPS-induced release of IL-6 from THP-1 cells (ELISA); type: cell-based, human
Procedure: Monocytes are well-recognised to respond to inflammatory stimuli by releasing a range of cytokines; IL-6 is a highly expressed pro-inflammatory cytokine in activated monocytes. The principle of this assay was to compare the effect of pre-incubating human cells from a monocyte-derived cell line (THP-1) with a known anti-inflammatory drug (dexamethasone; Dex), or a range of concentrations of barettin, on IL-6 generation in response to the inflammatory stimulus, lipopolysaccharide (LPS).
THP-1 cells (Health Protection Agency, Porton Down, UK) were maintained at 37° C. with 5% CO2 in RPMI 1640 containing 10% foetal bovine serum, 2 mM L-glutamine with 100 IU/ml penicillin and 100 μg/ml streptomycin (PAA laboratories Ltd, Yeovil, UK). The cells were grown in suspension and then plated out in 24-well plates at 2×10^5 cells per well.
Treatments: • a. vehicle control (RPMI 1640+0.5% DMSO) • b. 10 μM Dex for 24 h • c. 10 μg/ml LPS for 24 h • d. Pre-treated with 10 μM Dex for 30 min followed by 10 μg/ml lipopolysaccharide LPS for 24 h • e. Pre-treated with barettin at 1, 3, 10, 30 and 100 μg/ml for 30 min followed by 10 μg/ml LPS for 24 h
The concentration of Dex and barettin remained consistent throughout the incubation period; the final DMSO concentration was 0.5%. Cells were incubated at 37° C. and 5% CO2 for 24 hours.
Following incubations, cells and supernatants were harvested into 1.5 ml Eppendorf® tubes and supernatants were cleared of cells and debris by centrifugation at 300 g for 3 min at room temperature. Supernatants were transferred to clean 1.5 ml Eppendorf® tubes and stored at −80° C.
IL-6 expression was measured by ELISA (eBioscience, human IL-6 Platinum ELISA) according to the manufacturer's instructions. Data were collected using a VarioSkan Flash plate reader and Skanit software v2.4.3 (Thermo Fisher Scientific, Basingstoke, UK).

HepG2 cells [5] = assay: cytotoxicity assay, HepG2 cells (CellTiter 96 AQueous One Solution); type: cell-based; conditions: 2 h and 24 h exposure, concentrations tested (FIG. 6)
Procedure: (§2) Cytotoxicity was tested on HepG2 and MRC-5 cells (normal lung fibroblasts) for 2 h (HepG2) and 24 h (HepG2 and MRC-5) using the CellTiter 96 AQueous One Solution Assay (Promega). MBC-005 and MBC-007 were not toxic to the HepG2 or the MRC5 cells in the concentrations tested (FIG. 6 and FIG. 7). In the CLPAA assays the cells were exposed to the test compounds for 1 h before washed. Thus a 2 h exposure would detect whether the MBC-compounds are likely to cause cell death and false results in the CLPAA assays. MRC5 and HepG2 cells were also exposed to the barettin compounds for 24 h. This would reveal more long-term damage or whether any toxicity was caused by something other than membrane lysis. […] This was above the concentrations used in the CLPAA assay.
as §1, with “HepG2 and MRC-5” for “HepG2”
(§3) Cytotoxicity was studied in HepG2 and MRC-5 cells (normal human lung fibroblasts) for 2 h (HepG2) and 24 h (HepG2 and MRC-5). […] Absorbance was measured at 485 nm in a DTX 880 Multimode Detector. Results were calculated as % survival compared to a positive control.

[6] = test system: MRC-5 cells (normal human lung fibroblasts); assay: cytotoxicity assay, MRC-5 cells (CellTiter 96 AQueous One Solution); type: cell-based; conditions: 24 h exposure, concentrations tested (FIG. 7)
Procedure: as §2
as §1, with “HepG2 and MRC-5” for “HepG2”
as §3

[7] = cytotoxicity of isolated barettin over 72 h (data not shown); type: cell-based
Text: MBC-005 and MBC-007 were not toxic to the HepG2 or the MRC5 cells in the concentrations tested (FIG. 6 and FIG. 7). […] This would reveal more long-term damage or whether any toxicity was caused by something other than membrane lysis. […] This was above the concentrations used in the CLPAA assay.

[8] = test system: tumor necrosis factor-alpha (TNF-α) in LPS induced monocytes (THP-1 cells); assay: inhibition of TNF-α secretion in LPS induced monocytes (ELISA); type: cell-based, human; conditions: 75 and 100 μg/ml, LPS induced THP-1 cells
Procedure: (§4) Tumor necrosis factor-alpha (TNF-α) and Interleukin-1 beta (IL-1β) are both cytokines (small cell-signalling protein molecules) linked to inflammatory responses. Thus, the present inventors have tested the ability of isolated barettin (designated MCB-011 in the present experiment) to inhibit the secretion of these cytokines in LPS induces monocytes (THP-1 cells).
(§5) THP-1 cells were grown in RPMI-1640 supplemented with gentamycin and FBS and incubated at 37° C. with 5% CO2. To differentiate the monocytes into macrophages, 50 ng/ml PMA was added. Approximately 10^5 cells supplemented with 50 ng/ml PMA were seeded in 96 well plates and incubated at 37° C., 5% CO2 for 48 hours. The cells were controlled using a microscope after 24 h to make sure they had started to differentiate. After 48 h the cells were washed and new RPMI (w/o PMA) added before another 24 h incubation.
(§6) The cells were added 90 μl fresh medium and 10 μl test compound at various concentrations in duplex. After incubation for 1 h, 1 ng/ml LPS was added to all samples except negative controls. Incubation for 6 h at 37° C. followed. The reactions were stopped by freezing the plates at −80° C. immediately after incubation. One day prior to ELISA testing MaxiSorp 96F-well plates were coated with 2 μg/ml capture antibody (Ab) and placed in the refrigerator overnight. […] Results were read at DTX880 at 405 nm.

[9] = test system: Interleukin-1 beta (IL-1β) in LPS induced monocytes (THP-1 cells); assay: inhibition of IL-1β secretion in LPS induced monocytes (ELISA); type: cell-based, human; conditions: 75 and 100 μg/ml, LPS induced THP-1 cells
Procedure: as §4, §5, §6

N=C(N)NCCCC1NC(=O)/C(=C/c2c[nH]c3cc(Br)ccc23)NC1=O (stereo not drawn) [MBC-005, cyclo-[(6-bromo-8-en-tryptophan)-arginine]]
FRAP value [1]: 77 μM TE
FRAP dose-response [1]: dose-response activity was observed
ORAC value (Trolox equivalents) ([2]; 30 μg/ml (71.6 μM)): 5.5 μM TE
ORAC dose-response [2]: dose-response activity was observed
activity in CLPAA assay (lipid peroxidation in HepG2 cells) (HepG2 cells [3]): acts in a dose-dependent manner to reduce lipid peroxidation
reduction in oxidation compared to the control (HepG2 cells [3]; HepG2 cells, cumOOH-induced lipid peroxidation): 55%
effect on LPS-induced generation of IL-6, significance ([4]; 1 μg/ml (~2.4 μN)): significant
anti-inflammatory effect versus cytotoxicity ([4]; 30 μg/ml and below): genuine anti-inflammatory effect
effect on LPS-induced generation of IL-6 ([4]; 1-100 μg/ml, 30 min pre-treatment, 10 μg/ml LPS 24 h): clear concentration-dependent effect
IL-6 expression with compound alone (no LPS) ([4]; pilot data, THP-1 cells, compound alone): did not result in the up-regulation of IL-6 expression
cytotoxicity to HepG2 cells (HepG2 cells [5]): not toxic
cytotoxicity to MRC5 cells [6]: not toxic
concentration at which cytotoxicity appears [7]: ≥ 100 µg/mL

O=c1cc(-c2ccc(O)c(O)c2)oc2cc(O)cc(O)c12 [luteolin, reference compound]
FRAP value [1]: 151 μM TE

N=C(N)NCCC[C@@H]1NC(=O)/C(=C/c2c[nH]c3ccccc23)NC1=O [MBC-007]
FRAP dose-response [1]: dose-response activity was observed
ORAC dose-response [2]: dose-response activity was observed
activity in CLPAA assay (lipid peroxidation in HepG2 cells) (HepG2 cells [3]; listed as de-brominated synthetic analogue): did not show any significant activity
cytotoxicity to HepG2 cells (HepG2 cells [5]): not toxic
cytotoxicity to MRC5 cells [6]: not toxic

N=C(N)NCCC[C@@H]1NC(=O)/C(=C/c2c[nH]c3cc(Br)ccc23)NC1=O [MBC-011, Barettin]
inhibition of TNF-α [8]: significant inhibition
inhibition of IL-1β [9]: significant inhibition
